Experimental findings from patent US8435955B2, “Antibacterial deodorant” (priority 2008, dated 2013) are described below.

Experiment [1] in a line: Deodorization test 1. The following applies: Trimethylamine; for Reduction: initial 20 ppm, after 30 minutes; for Reduction / Concentration after 30 minutes: 0.2 ml of 10% by weight aqueous solution; for Concentration after 30 minutes: initial concentration 20 ppm.
Experiment [2] in a line: Deodorization test 1. The following applies: Toluene, 0.2 ml of 10% by weight aqueous solution; for Reduction: initial 100 ppm, after 30 minutes; for Concentration after 30 minutes: initial concentration 100 ppm.
Experiment [3] is described as follows: Deodorization test 1. To be noted: Acetaldehyde; for Reduction: initial 10 ppm, after 30 minutes; for Reduction / Concentration after 30 minutes: 0.2 ml of 10% by weight aqueous solution; for Concentration after 30 minutes: initial concentration 10 ppm.
A short description of experiment [4]: Deodorization test 1. To be noted: Methyl mercaptan; for Reduction: initial 10 ppm, after 30 minutes; for Reduction / Concentration after 30 minutes: 0.2 ml of 10% by weight aqueous solution; for Concentration after 30 minutes: initial concentration 10 ppm.
Experiment [5] is described as follows: Deodorization test 1. To be noted: Formaldehyde, 0.2 ml of 10% by weight aqueous solution; for Reduction: initial 10 ppm, after 30 minutes; for Concentration after 30 minutes: initial concentration 10 ppm.
Experiment [6] is described as follows: Deodorization test 1. The following applies: Ammonia; for Reduction: initial 100 ppm, after 30 minutes; for Reduction / Concentration after 30 minutes: 0.2 ml of 10% by weight aqueous solution; for Concentration after 30 minutes: initial concentration 100 ppm.
Experiment [7] is described as follows: Deodorization test 1. The following applies: Isovaleric acid; for Reduction: initial 10 ppm, after 30 minutes; for Reduction / Concentration after 30 minutes: 0.2 ml of 10% by weight aqueous solution; for Concentration after 30 minutes: initial concentration 10 ppm.
Experiment [8] is described as follows: Deodorization test 1. To be noted: Styrene, 0.2 ml of 10% by weight aqueous solution; for Reduction: initial 100 ppm, after 30 minutes; for Concentration after 30 minutes: initial concentration 100 ppm.
Experiment [9] in a line: Deodorization test 1. To be noted: Acetic acid; for Reduction: initial 20 ppm, after 30 minutes; for Reduction / Concentration after 30 minutes: 0.2 ml of 10% by weight aqueous solution; for Concentration after 30 minutes: initial concentration 20 ppm.

On to `CSCC[C@H](N)C(=O)O` [Methionine], for which the Reduction in the experiment “Deodorization test 1 [1]” stood at 10%; in “Deodorization test 1 [2]”, 10%; in the experiment “Deodorization test 1 [3]”, 10%; in the experiment “Deodorization test 1 [4]”, 0%; in “Deodorization test 1 [5]” it was 10%; in “Deodorization test 1 [6]”, 30%. The Reduction in the experiment “Deodorization test 1 [7]” is listed as 0%; in the experiment “Deodorization test 1 [8]” it was 10%; in “Deodorization test 1 [9]”, 10%. In addition, the “Concentration after 30 minutes” value in the experiment “Deodorization test 1 [1]” is reported as 18 ppm; in “Deodorization test 1 [2]”, 90 ppm; in the experiment “Deodorization test 1 [3]”, 9 ppm; in the experiment “Deodorization test 1 [4]”, 10 ppm; in the experiment “Deodorization test 1 [5]”, 9 ppm; in the experiment “Deodorization test 1 [6]”, 70 ppm. The “Concentration after 30 minutes” value came out at 10 ppm in “Deodorization test 1 [7]”, 90 ppm in “Deodorization test 1 [8]” and 18 ppm in the experiment “Deodorization test 1 [9]”.
`NCC(=O)O` [Glycine]: the “deodorizing action (in words)” value in “Deodorization test 1 [1]” is “excellent deodorizing action”; in the experiment “Deodorization test 1 [3]”, “good results”; in “Deodorization test 1 [4]”, “excellent deodorizing action”; in the experiment “Deodorization test 1 [6]”, “excellent deodorizing action”; in “Deodorization test 1 [7]” it was “good results”; in “Deodorization test 1 [9]” it was “good results”. For the same molecule, the Reduction in “Deodorization test 1 [1]” is reported as 100%; in the experiment “Deodorization test 1 [2]”, 60%; in “Deodorization test 1 [3]”, 80%; in the experiment “Deodorization test 1 [4]” it was 100%; in the experiment “Deodorization test 1 [5]”, 70%; in “Deodorization test 1 [6]” it was 100%. Further, the Reduction is 90% in “Deodorization test 1 [7]”, 60% in the experiment “Deodorization test 1 [8]” and 90% in “Deodorization test 1 [9]”. Further, the “Concentration after 30 minutes” value is 0 ppm in “Deodorization test 1 [1]”; 40 ppm in “Deodorization test 1 [2]”; 2 ppm in “Deodorization test 1 [3]”; 0 ppm in “Deodorization test 1 [4]”; 3 ppm in “Deodorization test 1 [5]”; 0 ppm in the experiment “Deodorization test 1 [6]”. Further, the entries for the “Concentration after 30 minutes” value in “Deodorization test 1 [7]”, in “Deodorization test 1 [8]” and in the experiment “Deodorization test 1 [9]” were 1 ppm, 40 ppm and 2 ppm, respectively.
Take `O=C(O)[C@@H]1CCCN1` [Proline]: the Reduction in the experiment “Deodorization test 1 [1]” came to 5%; in the experiment “Deodorization test 1 [2]”, 0%; in “Deodorization test 1 [3]” it was 20%; in the experiment “Deodorization test 1 [4]” it was 0%; in “Deodorization test 1 [5]” it was 0%; in “Deodorization test 1 [6]”, 10%. Besides, the Reduction in the experiment “Deodorization test 1 [7]”, in the experiment “Deodorization test 1 [8]” and in “Deodorization test 1 [9]” was 0% in each case. For the same molecule, the “Concentration after 30 minutes” value in “Deodorization test 1 [1]” came out at 19 ppm; in the experiment “Deodorization test 1 [2]”, 100 ppm; in the experiment “Deodorization test 1 [3]” it was 8 ppm; in “Deodorization test 1 [4]”, 10 ppm; in the experiment “Deodorization test 1 [5]”, 10 ppm; in the experiment “Deodorization test 1 [6]”, 90 ppm. For the same molecule, the “Concentration after 30 minutes” value in the experiment “Deodorization test 1 [7]” was 10 ppm; in “Deodorization test 1 [8]” it was 100 ppm; in the experiment “Deodorization test 1 [9]”, 20 ppm.
Take `CC(C)[C@H](N)C(=O)O` [Valine]: the Reduction in “Deodorization test 1 [1]” turned out to be 5%; in “Deodorization test 1 [2]” it was 0%; in “Deodorization test 1 [3]”, 0%; in “Deodorization test 1 [4]”, 0%; in the experiment “Deodorization test 1 [5]” it was 0%; in the experiment “Deodorization test 1 [6]”, 10%. The Reduction in “Deodorization test 1 [7]”, in “Deodorization test 1 [8]” and in “Deodorization test 1 [9]” was 0% throughout. Also, the “Concentration after 30 minutes” value in “Deodorization test 1 [1]” turned out to be 19 ppm; in the experiment “Deodorization test 1 [2]”, 100 ppm; in “Deodorization test 1 [3]”, 10 ppm; in the experiment “Deodorization test 1 [4]” it was 10 ppm; in the experiment “Deodorization test 1 [5]”, 10 ppm; in the experiment “Deodorization test 1 [6]”, 90 ppm. Also, the “Concentration after 30 minutes” value in the experiment “Deodorization test 1 [7]” was found to be 10 ppm; in the experiment “Deodorization test 1 [8]”, 100 ppm; in “Deodorization test 1 [9]” it was 20 ppm.
In the case of `N[C@@H](CS)C(=O)O` [Cysteine], the “deodorizing action (in words)” value in “Deodorization test 1 [1]” and in “Deodorization test 1 [6]” was “excellent deodorizing action” throughout. Also, the Reduction in the experiment “Deodorization test 1 [1]” was 100%; in “Deodorization test 1 [2]”, 10%; in the experiment “Deodorization test 1 [3]” it was 0%; in “Deodorization test 1 [4]”, 0%; in the experiment “Deodorization test 1 [5]”, 20%; in the experiment “Deodorization test 1 [6]”, 100%. Moreover, the Reduction amounted to 20% in the experiment “Deodorization test 1 [7]”, 10% in “Deodorization test 1 [8]” and 20% in “Deodorization test 1 [9]”. In addition, the “Concentration after 30 minutes” value amounted to 0 ppm in the experiment “Deodorization test 1 [1]”; 90 ppm in the experiment “Deodorization test 1 [2]”; 10 ppm in the experiment “Deodorization test 1 [3]”; 10 ppm in the experiment “Deodorization test 1 [4]”; 8 ppm in “Deodorization test 1 [5]”; 0 ppm in the experiment “Deodorization test 1 [6]”. Further, the “Concentration after 30 minutes” value is reported as 8 ppm in the experiment “Deodorization test 1 [7]”, 90 ppm in “Deodorization test 1 [8]” and 16 ppm in the experiment “Deodorization test 1 [9]”.
On to `N[C@@H](Cc1c[nH]c2ccccc12)C(=O)O` [Tryptophan], for which the Reduction in “Deodorization test 1 [1]” worked out at 50%; in the experiment “Deodorization test 1 [2]”, 0%; in “Deodorization test 1 [3]”, 10%; in the experiment “Deodorization test 1 [4]”, 0%; in the experiment “Deodorization test 1 [5]”, 10%; in “Deodorization test 1 [6]”, 50%. For the same molecule, the Reduction stood at 0% in “Deodorization test 1 [7]”, 0% in “Deodorization test 1 [8]” and 10% in “Deodorization test 1 [9]”. Also, the “Concentration after 30 minutes” value in “Deodorization test 1 [1]” came to 10 ppm; in “Deodorization test 1 [2]” it was 100 ppm; in “Deodorization test 1 [3]”, 9 ppm; in the experiment “Deodorization test 1 [4]” it was 10 ppm; in the experiment “Deodorization test 1 [5]”, 9 ppm; in “Deodorization test 1 [6]”, 50 ppm. For the same molecule, the “Concentration after 30 minutes” value is 10 ppm in “Deodorization test 1 [7]”, 100 ppm in “Deodorization test 1 [8]” and 18 ppm in “Deodorization test 1 [9]”.
As for `NCCCC[C@H](N)C(=O)O` [Lysine], the Reduction in the experiment “Deodorization test 1 [1]” amounted to 10%; in “Deodorization test 1 [2]” it was 0%; in the experiment “Deodorization test 1 [3]”, 10%; in the experiment “Deodorization test 1 [4]” it was 0%; in the experiment “Deodorization test 1 [5]” it was 0%; in “Deodorization test 1 [6]” it was 10%. Besides, the Reduction in “Deodorization test 1 [7]”, in the experiment “Deodorization test 1 [8]” and in the experiment “Deodorization test 1 [9]” was 0% each time. Moreover, the “Concentration after 30 minutes” value is on record as 18 ppm in the experiment “Deodorization test 1 [1]”; 100 ppm in “Deodorization test 1 [2]”; 9 ppm in the experiment “Deodorization test 1 [3]”; 10 ppm in “Deodorization test 1 [4]”; 10 ppm in the experiment “Deodorization test 1 [5]”; 90 ppm in “Deodorization test 1 [6]”. In addition, the “Concentration after 30 minutes” value in the experiment “Deodorization test 1 [7]” was found to be 10 ppm; in “Deodorization test 1 [8]”, 100 ppm; in the experiment “Deodorization test 1 [9]”, 20 ppm.
Take `N=C(N)NCCC[C@H](N)C(=O)O` [Arginine]: the Reduction in the experiment “Deodorization test 1 [1]” is listed as 5%; in “Deodorization test 1 [2]”, 0%; in “Deodorization test 1 [3]”, 10%; in the experiment “Deodorization test 1 [4]”, 0%; in “Deodorization test 1 [5]”, 0%; in “Deodorization test 1 [6]”, 10%. Also, the Reduction is given as 0% in “Deodorization test 1 [7]”, 0% in “Deodorization test 1 [8]” and 15% in the experiment “Deodorization test 1 [9]”. The “Concentration after 30 minutes” value in the experiment “Deodorization test 1 [1]” is 19 ppm; in the experiment “Deodorization test 1 [2]” it was 100 ppm; in the experiment “Deodorization test 1 [3]”, 9 ppm; in the experiment “Deodorization test 1 [4]” it was 10 ppm; in “Deodorization test 1 [5]” it was 10 ppm; in “Deodorization test 1 [6]”, 90 ppm. The entries for the “Concentration after 30 minutes” value in “Deodorization test 1 [7]”, in the experiment “Deodorization test 1 [8]” and in the experiment “Deodorization test 1 [9]” were 10 ppm, 100 ppm and 17 ppm, respectively.
